The text below walks through data of patent US11851428B2, “Activator of TREK (TWIK RElated K+channels) channels” (ONO PHARMACEUTICAL CO., LTD., priority 2016, dated 2023).

This experiment has as its target T1, human TREK-1 (Homo sapiens, UniProt O95069).
T1 construct: expressed in transfected cells
T1 sequence (O95069 1-426): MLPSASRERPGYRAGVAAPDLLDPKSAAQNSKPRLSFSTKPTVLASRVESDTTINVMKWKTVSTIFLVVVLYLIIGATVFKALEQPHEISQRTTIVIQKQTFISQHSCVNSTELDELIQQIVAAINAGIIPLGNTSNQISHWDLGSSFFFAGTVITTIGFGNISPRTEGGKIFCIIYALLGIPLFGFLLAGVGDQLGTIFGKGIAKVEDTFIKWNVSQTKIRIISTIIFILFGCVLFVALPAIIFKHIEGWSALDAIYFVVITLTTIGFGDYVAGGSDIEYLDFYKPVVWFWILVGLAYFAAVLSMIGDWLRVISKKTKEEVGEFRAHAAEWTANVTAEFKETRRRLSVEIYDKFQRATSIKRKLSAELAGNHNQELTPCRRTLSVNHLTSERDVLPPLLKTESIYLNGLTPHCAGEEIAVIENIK
In words: thallium flux assay (TREK1 activation normalized to BL-1249). It counts as cell-based. As to conditions: normalized to 10 μM BL-1249, CHO-K1 cells stably expressing human TREK-1; for activation at 10 µM / activation at 30 µM: read-out: TREK1 activation RBL-1249 (%). The procedure:
The term “thallium flux assay” herein refers to a fluorescence-based assay used to monitor the activity of TREK channels. Thallium is a congener of potassium that readily fluxes through the pore of TREK channels. Thallium flux is measured using a commercially available, thallium-sensitive fluorescent dye called Thallos. The detail method is described below.
Method 1 (Thallium Flux Assay);
CHO-K1 cells stably expressing human TREK-1 or HEK293 cells stably expressing human TREK-2 are plated in 384-well plates, cultured overnight, loaded with Thallos dye the following day, treated with test compounds for 10 min, and then treated with thallium stimulus buffer to initiate thallium flux. The change in fluorescence at 25 seconds after thallium addition is normalized to baseline fluorescence (fluorescent intensity at 25 sec after Tl^+ addition)/(average of fluorescent intensity at pre-read).

Setting [1] is: concentration of Example compound 10 μM.
The mark [2] stands for this setting: concentration of Example compound 30 μM.

`O=C(NCc1ccc(OC(F)(F)F)cc1)c1ccc(-n2cncn2)cc1` [4-(1H-1,2,4-triazol-1-yl)-N-[4-(trifluoromethoxy)benzyl]benzamide]: the activation at 10 µM under setting [1] came out at 63%.
The same measure, in the same setting: the value for `Cc1cc(OC(F)(F)F)ccc1CNC(=O)c1ccc2ncnn2c1` [Example 1, N-[2-Methyl-4-(trifluoromethoxy)benzyl]-[1,2,4]triazolo[1,5-a]pyridine-6-carboxamide] was 88%; that for `O=C(NCc1ccc(OC(F)(F)F)cc1)c1ccn2cnnc2c1` [Example 1-3, N-[4-(trifluoromethoxy)benzyl][1,2,4]triazolo(4,3-a]pyridine-7-carboxamide] was 28%; that for `O=C(NCc1ccc(Cl)cc1Cl)c1ccc2ncnn2c1` [Example 1-5, N-(2,4-dichlorobenzyl)[1,2,4]triazolo[1,5-a]pyridine-6-carboxamide] was 44%.
For the compound `O=C(NCc1ccc(Cl)cc1Cl)c1ccc2[nH]ncc2c1` [Example 1-6, N-(2,4-dichlorobenzyl)-1H-indazole-5-carboxamide], under setting [1], the activation at 10 µM stood at 26%.
Turning to `O=C(NCc1ccc(OC(F)(F)F)cc1F)c1ccnc(F)c1` [Example 1-12, 2-fluoro-N-[2-fluoro-4-(trifluoromethoxy)benzyl]isonicotinamide], the activation at 30 µM under setting [2] was 63%.
Turning to `O=C(NCc1ccc(OC(F)(F)F)cc1F)c1ccc(F)nc1` [Example 1-13, 6-fluoro-N-[2-fluoro-4-(trifluoromethoxy)benzyl]nicotinamide], under setting [1], the activation at 10 µM amounted to 65%.
Regarding `O=C(NCc1ccc(OC(F)(F)F)cc1)c1ccn2ncnc2c1` [Example 1-21, N-[4-(trifluoromethoxy)benzyl][1,2,4]triazolo[1,5-a]pyridine-7-carboxamide], the activation at 30 µM under setting [2] came to 73%.
Regarding `O=C(NCc1ccc(OC(F)(F)F)c(F)c1)c1ccc2ncnn2c1` [Example 1-23], under setting [1], the “TREK1 activation RBL-1249 (%)” value amounted to 63%.
On to `COc1cc(OC(F)(F)F)ccc1CNC(=O)c1ccc2ncnn2c1` [Example 1-26, N-[2-methoxy-4-(trifluoromethoxy)benzyl][1,2,4]triazolo[1,5-a]pyridine-6-carboxamide], for which the activation at 30 µM under setting [2] is 74%.
As for `O=C(NCc1ccc(C(F)(F)F)cc1Cl)c1cccc2ncnn12` [Example 1-27, N-[2-chloro-4-(trifluoromethyl)benzyl][1,2,4]triazolo[1,5-a]pyridine-5-carboxamide], the activation at 10 µM under setting [1] turned out to be 91%.
`O=C(NCc1ccc(Br)cc1Cl)c1ccc2ncnn2c1` [Example 1-28]: the “TREK1 activation RBL-1249 (%)” value under setting [1] was 99%.
As for `O=C(NCc1ccc(OC(F)(F)F)cc1F)c1ccn2cnnc2c1` [Example 1-29, N-[2-fluoro-4-(trifluoromethoxy)benzyl][1,2,4]triazolo[4,3-a]pyridine-7-carboxamide], the activation at 10 µM under setting [1] was determined as 80%.
For `COc1cc(OC(F)(F)F)ccc1CNC(=O)c1ccn2cnnc2c1` [Example 1-30, N-[2-methoxy-4-(trifluoromethoxy)benzyl][1,2,4]triazolo[4,3-a]pyridine-7-carboxamide], the activation at 30 µM under setting [2] worked out at 76%.
On to `O=C(NCc1ccc(C(F)(F)F)cc1Cl)c1ccn2cnnc2c1` [Example 1-31, N-[2-chloro-4-(trifluoromethyl)benzyl][1,2,4]triazolo[4,3-a]pyridine-7-carboxamide], for which, under setting [1], the activation at 10 µM turned out to be 90%.
The same measure, in the same setting: the value for `O=C(NCc1ccc(OC(F)(F)F)cc1)c1cc2cccnc2s1` [Example 1-33, N-(4-(trifluoromethoxy)benzyl]thieno[2,3-b]pyridine-2-carboxamide] was 26%.
For the compound `O=C(NCc1ccc(OC(F)(F)F)cc1)c1cnc(C(F)(F)F)nc1` [Example 1-34, N-[4-(trifluoromethoxy)benzyl]-2-(trifluoromethyl)-5-pyrimidinecarboxamide], the activation at 10 µM under setting [1] was 33%.
`O=C(NCc1ccc(OC(F)(F)F)cc1)c1ccc2nccnc2c1` [Example 1-36, N-[4-(trifluoromethoxy)benzyl]-6-quinoxalinecarboxamide]: the activation at 10 µM under setting [1] came out at 26%.
In the case of `O=C(NCc1ccc(OC(F)(F)F)cc1)c1cn[nH]c(=O)c1` [Example 1-42, 6-oxo-N-[4-(trifluoromethoxy)benzyl]-1,6-dihydro-4-pyridazinecarboxamide], the activation at 30 µM under setting [2] was 41%.
Same read-out and setting: the value for `O=C(NCc1ccc(OC(F)(F)F)cc1)c1nc2ncccn2n1` [Example 1-44, N-[4-(trifluoromethoxy)benzyl][1,2,4]triazolo[1,5-a]pyrimidine-2-carboxamide] was 25%.
For the compound `Cc1cc(OC(F)(F)F)ccc1CNC(=O)c1ccn2cnnc2c1` [Example 1-45, N-[2-methyl-4-(trifluoromethoxy)benzyl][1,2,4]triazolo[4,3-a]pyridine-7-carboxamide], the activation at 10 µM under setting [1] amounted to 85%.
On the same count and under the same terms, the value for `Cc1cc(OC(F)(F)F)ccc1CNC(=O)c1cc2ncccn2n1` [Example 1-46, N-[2-methyl-4-(trifluoromethoxy)benzyl]pyrazolo[1,5-a]pyrimidine-2-carboxamide] was 67%.
Still for that read-out and setting: the value for `O=C(NCc1ccc(C(F)(F)F)cc1Cl)c1cc2ncccn2n1` [Example 1-47, N-(2-chloro-4-(trifluoromethyl)benzyl]pyrazolo[1,5-a]pyrimidine-2-carboxamide] was 63%; that for `O=C(NCc1ccc(OC(F)(F)F)cc1F)c1cc2ncccn2n1` [Example 1-50, N-[2-fluoro-4-(trifluoromethoxy)benzyl]pyrazolo[1,5-a]pyrimidine-2-carboxamide] was 66%.
Still for that read-out and setting: the value for `COc1cc(OC(F)(F)F)ccc1CNC(=O)c1cc2ncccn2n1` [Example 1-51, N-[2-methoxy-4-(trifluoromethoxy)benzyl]pyrazolo[1,5-a]pyrimidine-2-carboxamide] was 65%; that for `O=C(NCc1ccc(OC(F)(F)F)c(F)c1)c1cc2ncccn2n1` [Example 1-52, N-[3-fluoro-4-(trifluoromethoxy)benzyl]pyrazolo[1,5-a]pyrimidine-2-carboxamide] was 75%.
Turning to `Cc1cc(OC(F)(F)F)ccc1CNC(=O)c1cc(F)nc(F)c1` [Example 1-55, 2-6-difluoro-N-[2-methyl-4-(trifluorothoxy)benzyl]isonicotinamide], the “TREK1 activation RBL-1249 (%)” value under setting [2] worked out at 38%.
On to `Cc1cc(OC(F)(F)F)ccc1CNC(=O)c1nc2ncccn2n1` [Example 1-61, N-[2-methyl-4-(trifluoromethoxy)benzyl][1,2,4]triazolo[1,5-a]pyrimidine-2-carboxamide], for which the activation at 30 µM under setting [2] is 48%.
On to `O=C(NCc1ccc(OC(F)(F)F)cc1)c1ccc2[nH]ncc2c1` [Example 1-71, N-[4-(trifluoromethoxy)benzyl]-1H-indazole-5-carboxamide], for which, under setting [1], the activation at 10 µM is 19%.
Take `O=C(NCc1ccc(OC(F)(F)F)cc1)c1ccc2[nH]cnc2c1` [Example 1-72, N-[4-(trifluoromethoxy)benzyl]-1H-benzimidazole-5-carboxamide]: the activation at 30 µM under setting [2] is 60%.
`O=C(NCc1ccc(Br)cc1Cl)c1ccc2[nH]nnc2c1` [Example 1-76, N-[(4-bromo-2-chlorophenyl)methyl]-1H-benzotriazole-5-carboxamide]: the activation at 10 µM under setting [1] was 101%.
On the same count and under the same terms, the value for `O=C(NCc1ccc(OC(F)(F)F)cc1F)c1cnc2ccnn2c1` [Example 1-81, N-[[2-fluoro-4-(trifluoromethoxy)phenyl]methyl]pyrazolo[1,5-a]pyrimidine-6-carboxamide] was 78%; that for `O=C(NCc1ccc(Br)cc1Cl)c1ccc2snnc2c1` [Example 1-86, N-[(4-bromo-2-chlorophenyl)methyl]-1,2,3-benzothiadiazole-5-carboxamide] was 75%; that for `Cc1cc(OC(F)(F)F)ccc1CNC(=O)c1ccn2ccnc2c1` [Example 1-87, N-[[2-methyl-4-(trifluoromethoxy)phenyl]methyl]imidazo[1,2-a]pyridine-7-carboxamide] was 72%.
Same read-out and setting: the value for `N#Cc1cc(OC(F)(F)F)ccc1CNC(=O)c1ccc2ncnn2c1` [Example 1-89, N-[[2-cyano-4-(trifluoromethoxy)phenyl]methyl]-[1,2,4]triazolo[1,5-a]pyridine-6-carboxamide] was 70%; that for `O=C(NCc1ccc(OC(F)F)cc1Cl)c1ccc2ncnn2c1` [Example 1-92, N-[[2-chloro-4-(difluoromethoxy)phenyl]methyl]-[1,2,4]triazolo[1,5-a]pyridine-6-carboxamide] was 70%.
Regarding `COc1cc(OC(F)(F)F)ccc1CNC(=O)c1ccc(-n2cncn2)cc1` [Example 2-1, N-[2-methoxy-4-(trifluoromethoxy)benzyl]-4-(1H-1,2,4-triazol-1-yl)benzamide], the activation at 10 µM under setting [1] amounted to 54%.
